Tested on: Plasmodium berghei
Assay: Luciferase/luciferin-expressing antifolate-resistant parasites were used to infect a culture of HepG2 cells that were pre-incubated with compounds. Infected hepatocytes emit light due to the luciferase reaction. Assay results are presented as the percent inhibition of light emission compared to control. […]
Type: functional
Settings: sporozoite; for IC50: read-out: LUCIFERASE INFECTION ASSAY - IC50; for IC90: read-out: LUCIFERASE INFECTION ASSAY - IC90

SMILES	IC50 [µM]	IC90 [µM]
O=C1c2ccccc2C(=Cc2ccc(C(F)(F)F)cc2)c2ccccc21	3.58	4.1
Cn1c(S)nnc1-c1ccc(C(C)(C)C)cc1	> 13.3	> 13.3
O=S(=O)(c1ccc2ccccc2c1)N1CCN(c2ncc(C(F)(F)F)cc2Cl)CC1	> 7.24	> 7.24
N#C/C(=N\Nc1ccc(Cl)cc1)C(=O)c1ccsc1	> 11.4	> 11.4
CCCCCCCCCCCCSC(=S)c1c(C)[nH]n(-c2ccccc2)c1=O	> 7.88	> 7.88
Cc1onc(-c2c(Cl)cccc2Cl)c1CO/N=C(\C#N)c1c(Cl)cccc1Cl	> 7.25	> 7.25
CCOC(=O)c1c(S(N)(=O)=O)c(C)n(-c2ccccc2)c1C	> 10.2	> 10.2
Cc1onc(-c2c(Cl)cccc2Cl)c1NC(=O)Nc1ccc(Cl)cc1	0.334	2.89
CC(C)c1ccc(-n2c(SCc3ccc(Cl)cc3)nnc2-c2ccc(C(C)(C)C)cc2)cc1	> 6.93	> 6.93
COc1ccc(OCc2nc(-c3ccc4c(c3)C(C)(C)CCC4(C)C)cs2)cc1	> 8.1	> 8.1
O=[N+]([O-])c1cnc(Sc2nnc(-c3ccccc3)[nH]2)s1	> 10.8	> 10.8
COc1ccc(-c2ccc(C=C(C#N)C#N)s2)cc1	0.403	0.914
CCCCCCCCCCCc1nnc(SCc2ccc(C)cc2)n1-c1ccccc1C(F)(F)F	> 6.55	> 6.55
Cc1noc(/C=C/c2cc(C(F)(F)F)cc(C(F)(F)F)c2)c1[N+](=O)[O-]	> 9.01	> 9.01
COC(=O)c1c(C)nn(C(=O)c2ccc(Cl)cc2)c1-c1snnc1C	> 8.76	> 8.76
OC(c1ccccc1)c1cccs1 (configuration not stated)	> 17.3	> 17.3
Cc1oc(-c2ccc(Cl)cc2)cc1C(=O)Nc1cccc(C(F)(F)F)c1	> 8.69	> 8.69
CC(C)(C)c1ccc(C(=O)NNC(=S)Nc2cccc(C(F)(F)F)c2)cc1	7.4	> 8.34
COc1cc(NC(=S)Nc2ccc(Cl)cc2)cc(C(F)(F)F)c1	> 9.15	> 9.15
C=C1CC(=O)N(c2ccc(OC(F)(F)F)cc2)C1=O	> 12.2	> 12.2
CC(C)Cc1ccc(C(=O)CC(Sc2ccccc2N)c2ccc(Cl)cc2)cc1 (configuration not stated)	0.135	1.03

SMILES	IC50 [µM]	IC90 [µM]
N#Cc1ccccc1OC(=O)Nc1ccc(OC(F)(F)F)cc1	3.31	3.62
CCCC(/N=C/c1cc(Cl)ccc1O)/N=C/c1cc(Cl)ccc1O	> 9.03	> 9.03
N=C(Cc1ccc([N+](=O)[O-])cc1)NOC(=O)c1cccs1	> 10.8	> 10.8
CC1C/C(=N\Nc2cc(Cl)cc(Cl)c2)c2cc(Cl)ccc2S1(=O)=O (configuration not stated)	6.27	> 8.17
Cc1cc(C(=O)N/N=C/C(C)(C)C)nn1-c1ccc(C(C)C)cc1	> 10.1	> 10.1
CC(C)c1ccc(C2C3CCc4ccccc4C3=NN2C)cc1 (configuration not stated)	0.0716	0.553
CCOC(=O)Cc1nn(Cc2nc(-c3ccc(C(F)(F)F)cc3)cs2)c(=O)c2ccccc12	> 6.97	> 6.97
O=C(Nc1ccc(Cl)cc1)Nc1nc(-c2cc(Cl)c(Cl)s2)cs1	1.13	1.77
Cc1cc(C)c(CSCCNC2=CC(=O)CC(c3ccc(Cl)cc3)C2)c(C)c1 (configuration not stated)	> 7.97	> 7.97
O=C(Nc1ccc(-n2nc(C(F)(F)F)cc2C(F)(F)F)cc1)Nc1cc(Cl)cc(Cl)c1	1.83	2.08
N=C1C(=S)N(c2ccc(Cl)c(Cl)c2)C(=O)N1c1ccc(Cl)c(Cl)c1	> 7.87	> 7.87
CCOC(=O)c1c(S(=O)(=O)Nc2ccc(Cl)cc2)c(-c2ccccc2)n(-c2ccccc2)c1C	4.84	> 6.67
O=C(CC12CC3CC(CC(C3)C1)C2)Nc1ccc(C(F)(F)F)cc1	> 9.78	> 9.78
CCCCCc1ccc(-c2nnc(SCC(C)=O)[nH]2)cc1	> 10.9	> 10.9
CC(=O)N(/N=C/c1ccc(C(F)(F)F)cc1)C1=NN(C(C)=O)C(c2ccc(C(F)(F)F)cc2)S1 (configuration not stated)	> 6.57	> 6.57
O=C(Nc1ccc([N+](=O)[O-])cc1)n1nccc1-c1ccc(-c2cccs2)s1	7.77	> 8.32
C=CCNC(=S)Nc1ccc(Oc2cc(C(F)(F)F)cc(C(F)(F)F)c2)cc1	3.04	6.91
FC(F)(F)c1ccc(/C=N/Nc2c(Cl)cc(C(F)(F)F)cc2Cl)cc1	> 8.23	> 8.23
O=C(Nc1ccc(Oc2cccc3cccnc23)cc1)c1cccs1	> 9.53	> 9.53
N=C(NOC(=O)Nc1ccc(OC(F)(F)F)cc1)c1cc(Cl)c(N)c(Cl)c1	> 7.8	> 7.8
C#CCSc1nnc(-c2ccc(C(C)(C)C)cc2)n1-c1cccc(C(F)(F)F)c1	> 7.94	> 7.94

SMILES	IC50 [µM]	IC90 [µM]
COc1ccc2c(c1)CC/C(=C\c1ccc(C(C)C)cc1)C2=O	> 10.8	> 10.8
COc1ccc2cc(/C(C)=N/OC(=O)Nc3cc(Cl)cc(Cl)c3)ccc2c1	4.08	8.12
O=C(Nc1cccc(Cl)c1)n1nccc1-c1ccc(-c2cccs2)s1	> 8.55	> 8.55
Cc1oc(C(C)(C)C)cc1C(=O)Nc1ccc([N+](=O)[O-])cc1	> 10.9	> 10.9
CC1=NN(c2ccc(C)cc2)C(=O)C1=C1SCCS1	1.99	> 11.4
CC(=O)N(/N=C/c1ccc(Cl)cc1)C1=NN(C(C)=O)C(c2ccc(Cl)cc2)S1 (configuration not stated)	> 7.58	> 7.58
CCN(CC)c1ccc(NC(=O)c2c(-c3c(Cl)cccc3Cl)noc2C)c(N(CC)CC)n1	> 6.73	> 6.73
COc1ccc(C(=O)Nc2ccc(Oc3cc(C(F)(F)F)cc(C(F)(F)F)c3)cc2)cc1	0.486	2.35
FC(F)Oc1ccc(-c2csc(COc3ccc(C4SCCS4)cc3)n2)cc1	3.7	> 7.54
CCOC(=O)c1c(S(=O)(=O)Nc2cccc([N+](=O)[O-])c2)c(-c2ccccc2)n(-c2ccccc2)c1C	> 6.53	> 6.53
O=C(Nc1cccc(C(F)(F)F)c1)c1ccc(-c2ccccc2F)cc1	> 9.18	> 9.18
O=C1Nc2ccccc2/C1=C/c1ccc(C(F)(F)F)cc1Cl	> 10.2	> 10.2
CC(C)c1ccc(-n2c(SCc3ccc([N+](=O)[O-])cc3)nnc2-c2ccc(C(C)(C)C)cc2)cc1	> 6.78	> 6.78
CCCS(=O)(=O)/C(C#N)=C/c1ccc(-c2ccc(OC)cc2)s1	1.09	2.37
CCOC(=O)c1c(S(=O)(=O)Nc2ccccc2Cl)c(-c2ccccc2)n(-c2ccccc2)c1C	> 6.67	> 6.67
CC(C)(C)C(=O)Nc1ccccc1Sc1ccc([N+](=O)[O-])c(Sc2ccccc2NC(=O)C(C)(C)C)n1	> 6.13	> 6.13
CC(C)(C)c1ccc(C(=O)Nc2ccc(C(F)(F)F)cc2)s1	0.561	4.36
CCOC(=O)c1nc(-c2ccc([N+](=O)[O-])o2)no1	> 13	> 13
Cc1onc(-c2c(F)cccc2Cl)c1C(=O)Nc1ccc(Sc2ccccc2)nc1Sc1ccccc1	0.182	2.15

Reference: ChEMBL document CHEMBL4483862, “Open-source discovery of chemical leads for next-generation chemoprotective antimalarials” (2018)
